Data on 1 molecule can be found in paper PMC12137728, “The hydroxamate based HDAC inhibitor WMJ-J-09 induces colorectal cancer cell death by targeting tubulin and downregulating survivin” (Scientific Reports, 2025).

The test system of this test is tubulin in HCT116 cells. The experiment in a line: Microtubule assembly / polymerized tubulin (immunofluorescence, western blot). The class given is cell-based, human. The following applies: HCT116 cell lysate.

Description: Following the indicated treatments, a lysis buffer containing NP-40 (0.5%), Tris (10 mM) (pH 7.0), PMSF (2 mM), NaCl (140 mM), leupeptin (0.2 mM), and pepstatin A (0.05 mM) was utilized to lyse cells to extract proteins. SDS-PAGE was utilized to separate protein samples in equal quantities, then transferred to a nitrocellulose membrane (Pall Corporation, Washington, NY, U.S.A.). Following transfer and 1-h blocking by incubation with TBST buffer containing 5% non-fat, the proteins immobilized on the membranes undergo primary antibody hybridization. Secondary antibodies conjugated with horseradish peroxidase were used to detect target proteins. Immunoreactivity was detected using the Western chemiluminescent HRP substrate kit, as per the manufacturer’s recommendations. We used a densitometer integrated into a scientific imaging system (Biospectrum AC System, UVP) to obtain quantitative data. We examined tubulin assembly as previously described [8]. […] Subsequently, the cells were washed with PBS twice and fixed with 4% paraformaldehyde at room temperature for 15 min. Cells were permeabilized by incubation with PBS containing Triton X-100 (0.1%) for 30 min. […] The distribution of tubulin was analyzed using a confocal microscope (Zeiss, LSM 410). Green fluorescence represented β-tubulin, while blue fluorescence (derived from DAPI) corresponds to nuclei.

Consider `CC(=O)O[C@H]1C(=O)[C@@]2(C)[C@H]([C@H](OC(=O)c3ccccc3)[C@]3(O)C[C@H](OC(=O)[C@H](O)[C@@H](NC(=O)c4ccccc4)c4ccccc4)C(C)=C1C3(C)C)[C@]1(OC(C)=O)CO[C@@H]1C[C@@H]2O` [Paclitaxel, paclitaxel], for which the polymerized tubulin fraction entry is “increased the polymeric tubulin”.
